Columns and labels:
rgRSV224 virus = experiment: microbe, parasite or virus in culture; assay type: cell-based, respiratory syncytial virus (RSV); details: human respiratory syncytial virus, HeLa, 72 h, read-out: RSV HELA pEC50, rgRSV224 virus (MOI=1), HeLa cells, GFP expression three days post-virus exposure (converted)
HeLa cells = experiment: Cytotoxicity in HeLa cells, ATP content (ATPlite kit); details: three days incubation, CC50 = 50% concentration for cytotoxicity
Description: Black 384-well clear-bottom microtiter plates (Corning, Amsterdam, The Netherlands) were filled via acoustic drop ejection using the echo liquid handler (Labcyte, Sunnyvale, Calif.). 200 nL of compound stock solutions (100% DMSO) were transferred to the assay plates. 9 serial 4-fold dilutions of compound were made, creating per quadrant the same compound concentration. The assay was initiated by adding 10 μL of culture medium to each well (RPMI medium without phenol red, 10% FBS-heat inactivated, 0.04% gentamycin (50 mg/mL). All addition steps are done by using a multidrop dispenser (Thermo Scientific, Erembodegem, Belgium). Next, rgRSV224 virus (MOI=1) diluted in culture medium was added to the plates. rgRSV224 virus is an engineered virus that includes an additional GFP gene (Hallak L K, Spillmann D, Collins P L, Peeples M E. Glycosaminoglycan sulfation requirements for respiratory syncytial virus infection; Journal of virology (2000), 74(22), 10508-13) and was in-licensed from the NIH (Bethesda, Md., USA). Finally, 20 μL of a HeLa cell suspension (3,000 cells/well) were plated. Medium, virus- and mock-infected controls were included in each test. The wells contain 0.05% DMSO per volume. Cells were incubated at 37° C. in a 5% CO2 atmosphere. Three days post-virus exposure, viral replication was quantified by measuring GFP expression in the cells by an in house developed MSM laser microscope (Tibotec, Beerse, Belgium). The EC50 was defined as the 50% inhibitory concentration for GFP expression. In parallel, compounds were incubated for three days in a set of white 384-well microtiter plates (Corning) and the cytotoxicity of compounds in HeLa cells was determined by measuring the ATP content of the cells using the ATPlite kit (Perkin Elmer, Zaventem, Belgium) according to the manufacturer's instructions. The CC50 was defined as the 50% concentration for cytotoxicity.

Row | SMILES | melting point | EC50 (rgRSV224 virus) | SI TOX HELA (HeLa cells)
1 | Cc1ccc2ncnc(N3CCCCC3c3cc4nc(N5CCC5)c(C)cn4n3)c2c1 (centres unmarked) [P11, 4-(2-(5-(azetidin-1-yl)-6-methylpyrazolo[1,5-a]pyrimidin-2-yl)-piperidin-1-yl)-6-methylquinazoline] | 205.49 °C | 126 nM | <4.6
2 | COC(=O)N(C(=O)OC)c1nc(N2CCCCC2c2cc3nc(N4CCC4)cc(N4CCOCC4)n3n2)c2c(C)cccc2n1 (centres unmarked) [P28, dimethyl (4-{2-[5-(azetidin-1-yl)-7-(morpholin-4-yl)pyrazolo[1,5-a]-pyrimidin-2-yl]piperidin-1-yl}-5-methylquinazolin-2-yl)imidodicarbonate] | 136.62 °C | 794 nM | <4
3 | Cc1nnn(C)c1-c1nc(N2CCCCC2c2cc3nc(N4CCC4)cc(N4CCOCC4)n3n2)c2c(C)cccc2n1 (centres unmarked) [P73, 4-(5-(azetidin-1-yl)-2-(1-(2-(1,4-dimethyl-1H-1,2,3-triazol-5-yl)-5-methylquinazolin-4-yl)piperidin-2-yl)pyrazolo[1,5-a]pyrimidin-7-yl)morpholine] | 238.91 °C | 126 nM | 4.8
4 | Cc1ccc2ncnc(N3CCCCC3c3cc4nc(N5CC(O)C5)c(C)cn4n3)c2c1 (centres unmarked) [P12, 1-(6-methyl-2-(1-(6-methylquinazolin-4-yl)piperidin-2-yl)pyrazolo-[1,5-a]pyrimidin-5-yl)azetidin-3-ol] | 233.08 °C | 200 nM | <4
5 | Cc1nc(N2CCCCC2c2cc3nc(N4CC(N)C4)c(C)cn3n2)c2c(C)cccc2n1 (centres unmarked) [P27, 1-(2-(1-(2,5-dimethylquinazolin-4-yl)piperidin-2-yl)-6-methyl-pyrazolo[1,5-a]pyrimidin-5-yl)azetidin-3-amine] | 176.85 °C | 631 nM | 4.5
6 | Cc1ccc2ncnc(N3CCCCC3c3cc4nc(N5CCC5)cc(C)n4n3)c2c1 (centres unmarked) [P21, 4-(2-(5-(azetidin-1-yl)-7-methylpyrazolo[1,5-a]pyrimidin-2-yl)-piperidin-1-yl)-6-methylquinazoline] | 192.43 °C | 398 nM | <4.6
7 | Cc1nc2c(N3CCCCC3c3cc4nc(N5CCC5)cc(N5CCOCC5)n4n3)ncnc2s1 (centres unmarked) [P20, 4-(5-(azetidin-1-yl)-2-(1-(2-methylthiazolo[5,4-d]pyrimidin-7-yl)-piperidin-2-yl)pyrazolo[1,5-a]pyrimidin-7-yl)morpholine] | 229.8 °C | 631 nM | 5.4
8 | Cc1cccc2nc(C(=O)NS(=O)(=O)C3CC3)nc(N3CCCCC3c3cc4nc(N5CCC5)cc(N5CCOCC5)n4n3)c12 (centres unmarked) [P71, 4-(2-(5-(azetidin-1-yl)-7-morpholinopyrazolo[1,5-a]pyrimidin-2-yl)-piperidin-1-yl)-N-(cyclopropylsulfonyl)-5-methylquinazoline-2-carboxamide] | – | 398 nM | <4
9 | Cc1cccc2nc(-c3cnoc3)nc(N3CCCCC3c3cc4nc(N5CCC5)cc(N5CCOCC5)n4n3)c12 (centres unmarked) [P72, 4-(5-(azetidin-1-yl)-2-(1-(2-(isoxazol-4-yl)-5-methylquinazolin-4-yl)-piperidin-2-yl)pyrazolo[1,5-a]pyrimidin-7-yl)morpholine] | – | 25.1 nM | 4.5
10 | Cc1nc(N2CCCCC2c2cc3nc(N4CCC4)cc(N4CCOCC4)n3n2)c2cc[nH]c2n1 (centres unmarked) [P15, 4-(5-(azetidin-1-yl)-2-(1-(2-methyl-7H-pyrrolo[2,3-d]pyrimidin-4-yl)-piperidin-2-yl)pyrazolo[1,5-a]pyrimidin-7-yl)morpholine] | – | 251 nM | 4.0
11 | Cc1cccc2ncnc(N3CCCCC3c3cc4nc(N5CCC5)cc(N5CCOCC5)n4n3)c12 (centres unmarked) [P17, 4-(5-(azetidin-1-yl)-2-(1-(5-methylquinazolin-4-yl)piperidin-2-yl)-pyrazolo[1,5-a]pyrimidin-7-yl)morpholine] | – | 3.98 nM | 4.4

From US9981976B2, “Piperidine substituted pyrazolo[1,5-A]pyrimidine derivatives with inhibitory activity on the replication of the respiratory syncytial virus (RSV)” (priority 2014, dated 2018)
